{"source": "patent EP2450046B1", "about": "“A MEDICINAL COMPOSITION FOR THE TREATMENT OF BRONCHITIS AND PREPARATION THEREOF” (Hebei Yiling Medicine Research Institute Co., Ltd., priority 2009, dated 2011)", "key": {"[1]": {"system": "xylene-induced ear swelling in mice", "assay": "Effect on xylene-induced ear swelling in mice", "type": "in vivo, Kunming male mice", "conditions": "Aspirin 0.2 g/kg i.g. q.d. 3 days; weight of right minus left ear piece; n=10", "text": "Sixty Kunming male mice of Grade II with the mean body weight of 19.77 ± 0.91 g, provided by the breeding farm of the Institute of Laboratory Animal Science, Chinese Academy of Medical Sciences, License number: SCXK (Jing) 2000-0006. • (1) The present medication to be tested, 6.25 g crude drugs/g, provided by […] Pharmaceutical Co. […] SFDA Approval No. Z-11; Lot number of the product: 060112; valid until December 2007. • (3) Aspirin enteric-coated tablet as a western medicine control, 0.3 g/tablet, produced by Yantai the Second Pharmaceutical Factory), lot number: 011102. The above-described medications were formulated with distilled water into the required concentrations in the experiment. Sixty healthy mice were randomly assigned into the following six groups with 10 animals per group: […] (2) the Aspirin group (0.2 g/kg); (3) the […] group (2 g crude drugs/kg); (4) the low dosage group of the present medication (L-dosage group, 3g crude drugs/kg); (5) the medium dosage group of the present medication (M-dosage group, 6g crude drugs/kg); (6)the high dosage group of the present medication (H-dosage group, 12g crude drugs/kg). […] Fifteen minutes later, the animal was sacrificed by dislocation. […] The degree of ear swelling for each mouse was calculated by subtraction of the weight of the left piece from that of the right piece. […]"}, "[2]": {"system": "carrageenan-induced swelling of rat's footpad", "assay": "Effect on carrageenan-induced swelling of rat's footpad", "type": "in vivo, Wistar male rats", "conditions": "for Foot volume after inflammation / Foot volume, Difference / Swelling rate / inhibition at 150 mg/kg: Aspirin 0.15 g/kg i.g. q.d. 3 days; for inhibition at 150 mg/kg: Rattus norvegicus, po, read-out: Inhibition rate", "experimental": "• (1) The present medication to be tested, 6.25g crude drugs/g, provided by […] Pharmaceutical Co. […] SFDA Approval No. Z-11; […] The above-described medications were prepared into the required concentrations with distilled water in the experiment. • (4) Carrageenan, from SIGMA, lot number: 117H0151, prepared into required concentrations for the experiment. Sixty while Wistar male rats of Grade I with the mean body weight of 157.05 ± 8.49 g, provided by Institute of Laboratory Animal Science, Chinese Academy of Medical Sciences, License number: […] The sixty healthy rats were randomly assigned into the following six groups: (1) the blank control group administered with distilled water (10 ml/kg); […] (3) the […] group (1.5 g crude drugs/kg); (4) the low dosage group of the present medication (L-dosage group, 2 g crude drugs/kg); (5) the medium dosage group of the present medication (M-dosage group, 4 g crude drugs/kg); (6)the high dosage group of the present medication (H-dosage group, 8 g crude drugs/kg). The volume of the left hind foot of each animal determined by capillary amplification method was used as the value prior to administration. […] Comparisons among the groups were performed on the difference between the left foot volumes before and after inflammation by t-test."}, "[3]": {"system": "tampon-induced granuloma in rats", "assay": "Effect on small tampon-induced granuloma in rats", "type": "in vivo", "conditions": "Aspirin 0.15 g/kg i.g. q.d. 7 days; n=10", "text": "Sixty Wistar […] of Grade II evenly composed of males and females with the mean body weight of 132.37 ± 6.31 g, provided by the breeding farm of the Institute of Laboratory Animal Science, Chinese […] of Medical Sciences, and License number: SCXK (Jing) 2000-0006. • (1) The present medication to be tested, 6.25 g crude drugs/g, provided by […] Pharmaceutical Co. […] No. Z-11; Lot number: 060112. • (3) Aspirin Enteric-coated Tablet as a western medicine control, 0.3 g/tablet, produced by Yantai the Second Pharmaceutical Factory), lot number: 051102. The medication was prepared to required concentrations with distilled water in the experiment. • (4) Ampicillin Sodium Injection (ASI), 0.5 g/bottle, Produced by North China Pharmaceutical Co., Ltd. lot number: F0111207. […] The average wet and dry weights of the post-inflammation granuloma for each of the groups were calculated, from which the original weight of the cotton ball had been subtracted, and were compared among the groups by t-test."}}, "note": "Like-named read-outs stand apart in the source and are kept apart here."}
{"smiles": "CC(=O)Oc1ccccc1C(=O)O", "note": "[Aspirin]", "values": [{"measurement": "Swelling rate", "setting": "[1]", "result": "3.50 ± 0.71", "unit": "mg"}, {"measurement": "Foot volume after inflammation", "setting": "[2]; 0.5h", "result": "1.19 ± 0.04", "unit": "mL"}, {"measurement": "Foot volume, Difference", "setting": "[2]; 0.5h", "result": "0.21 ± 0.05", "unit": "mL"}, {"measurement": "Swelling rate", "setting": "[2]; 0.5h", "result": "21.4±5.49", "unit": "%"}, {"measurement": "Foot volume after inflammation", "setting": "[2]; 1h", "result": "1.23 ± 0.04", "unit": "mL"}, {"measurement": "Foot volume, Difference", "setting": "[2]; 1h", "result": "0.25 ± 0.03", "unit": "mL"}, {"measurement": "Swelling rate", "setting": "[2]; 1h", "result": "25.4±3.87", "unit": "%"}, {"measurement": "Foot volume after inflammation", "setting": "[2]; 2h", "result": "1.27 ± 0.02", "unit": "mL"}, {"measurement": "Foot volume, Difference", "setting": "[2]; 2h", "result": "0.29 ± 0.03", "unit": "mL"}, {"measurement": "Swelling rate", "setting": "[2]; 2h", "result": "29.7±4.00", "unit": "%"}, {"measurement": "Foot volume after inflammation", "setting": "[2]; 4h", "result": "1.30 ± 0.04", "unit": "mL"}, {"measurement": "Foot volume, Difference", "setting": "[2]; 4h", "result": "0.32 ± 0.04", "unit": "mL"}, {"measurement": "Swelling rate", "setting": "[2]; 4h", "result": "32.80±4.78", "unit": "%"}, {"measurement": "Foot volume after inflammation", "setting": "[2]; 6h", "result": "1.24 ± 0.03", "unit": "mL"}, {"measurement": "Foot volume, Difference", "setting": "[2]; 6h", "result": "0.26 ± 0.04", "unit": "mL"}, {"measurement": "Swelling rate", "setting": "[2]; 6h", "result": "26.26±3.95", "unit": "%"}, {"measurement": "Foot volume before inflammation", "setting": "[2]; Aspirin group 0.15 g/kg, baseline, n=10", "result": "0.98 ± 0.03", "unit": "mL"}, {"measurement": "inhibition at 150 mg/kg", "setting": "[2]; 0.5h", "result": 41.5, "unit": "%"}, {"measurement": "inhibition at 150 mg/kg", "setting": "[2]; 1h", "result": 41.2, "unit": "%"}, {"measurement": "inhibition at 150 mg/kg", "setting": "[2]; 2h", "result": 38.6, "unit": "%"}, {"measurement": "inhibition at 150 mg/kg", "setting": "[2]; 4h", "result": 32.1, "unit": "%"}, {"measurement": "inhibition at 150 mg/kg", "setting": "[2]; 6h", "result": 45.6, "unit": "%"}, {"measurement": "Dry weight of granuloma", "setting": "[3]", "result": "99.20 ± 10.16", "unit": "mg"}, {"measurement": "Wet weight of granuloma", "setting": "[3]", "result": "457.85 ± 50.01", "unit": "mg"}]}
